Columns and labels:
[1] = system: 293T cells; assay: Bax-induced apoptosis and caspase activation in transfected 293T cells; assay type: cell-based, human
Method: N-benzyloxycarbonyl-Val-Ala-Asp fluoromethylketone (zVAD-fmk; 50 μM) (Bachem Calif.; Torrance, Calif.) was added immediately after transfection of the Bax plasmid. Transfection efficiency was uniformly 80–90%, as determined by X-Gal staining following cotransfection with pCMV-βGal.
Cells were maintained in culture for 24 hr, then floating and attached cells were harvested and an aliquot was removed and the percent of dead cells was determined by either trypan blue or propidium iodide (PI) dye exclusion assay. A second aliquot was used to assess the percentage of apoptotic cells with subdiploid DNA content by FACS analysis of PI stained, ethanol fixed cells. The remaining cell pellets were lysed in 10 mM HEPES (pH 7.5), 142 mM KCl, 1 mM EGTA, 1 mM DTT, 0.2% NP-40, 0.1 mM PMSF and used for immunoblot analysis or for protease assays.

[2] = target: T1, caspase-3 (Homo sapiens, UniProt P42574); assay: Inhibition of purified recombinant caspase-3, DEVD substrate hydrolysis and progress curves; assay type: biochemical
T1 construct: to produce the 17–20 kDa mature, fully processed large subunit of the active caspase-3 enzyme; a smaller, fully processed, subunit of about 11 kDa; His6; made in house; host or cells: E. coli BL21(DE3)pLysS
T1 sequence (P42574 29-175 limits assumed): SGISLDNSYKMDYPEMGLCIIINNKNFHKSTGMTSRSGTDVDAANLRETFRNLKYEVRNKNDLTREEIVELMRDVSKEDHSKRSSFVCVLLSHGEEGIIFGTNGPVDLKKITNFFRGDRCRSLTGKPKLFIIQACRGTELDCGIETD
T1 sequence (P42574 176-277 limits assumed): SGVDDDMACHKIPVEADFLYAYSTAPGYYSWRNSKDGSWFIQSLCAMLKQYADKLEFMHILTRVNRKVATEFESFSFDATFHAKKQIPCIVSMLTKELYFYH
Method: (§1) Purified recombinant caspase-1, caspase-3, caspase-6, caspase-7 or caspase-8 were incubated with DEVD-pNA, either alone or with a 10-fold to 50-fold molar excess of GST-XIAP ([…]) and substrate hydrolysis was measured. Purified active caspase concentrations ranged from 0.1 nM to 10 nM. XIAP concentration ranged from 0.1 nM to 500 nM. Assays were performed in caspase buffer (50 mM Tris, pH 7.4, 100 mM NaCl, 10% sucrose, 5–10 mM DTT, 1 mM EDTA and 0.1% CHAPS).
Equilibria were determined from progress curves when substrate hydrolysis reached a steady-state; slopes were calculated by curve fit analysis using the cricket graph program. Experiments were performed using purified recombinant caspase-3, caspase-6, or caspase-7. DEVD-AFC hydrolysis was measured using 0.1 nM caspase and a range of concentrations (0.2 to 12 μM) of recombinant XIAP (rXIAP). […] Average ratio velocities (vi/vo, where “vi” indicates presence of GST-XIAP and “vo” indicates absence of GST-XIAP) were determined.
Caspase activity was determined essentially as described in Example II, using the benzylyoxycarbonyl-DEVD-AFC (SEQ ID NO: 2) substrate and was assayed at 37° C. using the Perkin-Elmer LS50B fluorometric plate reader in the kinetic mode with excitation and emission wavelengths of 400 nm and 505 nm, respectively. […] Reactions were performed in caspase buffer (50 mM Hepes, 100 mM NaCl, 1 mM EDTA, 0.1% CHAPS, 10% sucrose, 5 mM DTT). The inhibition constant, Ki, was calculated as described (Zhou et al., supra, 1997). Immunoblot analysis was performed as described in Example I.B.3.

[3] = system: pro-caspase-3 processing induced by cytochrome c; assay: Cytochrome c-induced processing of pro-caspase-3 in 293 cytosolic extracts; assay type: biochemical, human; conditions: immunoblot
Method: Samples were incubated at 30° C. for 30 minutes. Extracts were then separated by SDS-PAGE electrophoresis, transferred to nitrocellulose and incubated with antisera specific for the zymogen and large subunit of caspase-3.
Briefly, cells were washed with ice-cold buffer A (20 mM Hepes [pH 7.5], 10 mM KCl, 1.5 mM MgCl2, 1 mM EDTA, and 1 mM DTT) and suspended in 1 volume of buffer A. Cells were incubated on ice for 20 minutes and then disrupted by passage through a 26 gauge needle 15 times. Cell extracts were clarified by centrifugation at 16,000×g for 30 minutes and the resulting supernatants were stored at −80° C. For initiating caspase activation, either 10 μM horse heart cytochrome c (Sigma, Inc.) together with 1 mM dATP, or 100 nM of purified recombinant caspase-8, was added to extracts (10–15 mg total protein/ml).

[4] = system: 293 cells; assay: Fas-induced apoptosis in transfected 293 cells; assay type: cell-based, human; conditions: co-transfection of Fas and myc-XIAP; 36 hrs
Method: For determination of apoptotic activity in FIG. 2B, 293 cells in 60 mm dishes were transiently transfected with 6 μg of pcDNA-myc-tag control or pcDNA-myc-XIAP plasmids, and either 2 ug of pCMV5 or pCMV5-Fas plasmid DNA. All transfections included 0.5 ug of pEGFP as a marker and were normalized for total DNA content. The percentage of GFP positive cells with apoptotic morphology and nuclear changes consistent with apoptosis were enumerated by DAPI-staining (mean+SD; n=3) at 36 hrs. Alternatively, cell lysates were prepared, and immunoprecipitates were collected using anti-myc monoclonal antibody with protein-G-Sepharose, followed by SDS-PAGE immunoblot assay using anti-caspase-3 antiserum (Krajewska et al., supra 1997) to reveal the XIAP-associated p24 isoform of partially processed caspase-3. Lanes correspond to cells transfected with: (1) control plasmid; (2) myc-XIAP; (3) Fas plus myc-control; and (4) Fas plus myc-XIAP.
Apoptotic assays were performed as follows. 293 cells were transfected as described above, except that 0.5 μg pEGFP plasmid DNA was included.

[5] = target: T2, caspase-1 (Homo sapiens, UniProt P29466); assay: Inhibition of purified recombinant caspase-1, substrate hydrolysis; assay type: biochemical; conditions: 50-fold molar excess
T2 construct: Purified active caspase concentrations ranged from 0.1 nM to 10 nM; made in house
T2 sequence (P29466 120-297 limits assumed): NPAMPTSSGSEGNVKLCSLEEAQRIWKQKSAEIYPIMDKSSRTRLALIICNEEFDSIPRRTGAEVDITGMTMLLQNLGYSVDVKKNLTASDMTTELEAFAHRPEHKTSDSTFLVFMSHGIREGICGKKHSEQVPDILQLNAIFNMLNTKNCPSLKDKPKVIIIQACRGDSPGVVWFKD
T2 sequence (P29466 317-404 limits assumed): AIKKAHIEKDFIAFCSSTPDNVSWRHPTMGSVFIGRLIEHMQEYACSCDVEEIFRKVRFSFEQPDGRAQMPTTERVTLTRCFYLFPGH
Method: as §1

XIAP: X chromosome linked inhibitor of apoptosis protein (Genbank U32974), used mostly as recombinant GST fusion or expressed from plasmid
apoptotic cells (PI staining) in Bax expressing cells ([1]; 24 hr, Bax alone about 25%, zVAD-fmk 50 μM): less than 10%
Bax-induced generation of caspase activity and pro-caspase-3 processing (in words) ([1]; DEVD-AFC hydrolysis and immunoblot of cell extracts): markedly inhibited
apoptotic cells (PI staining) ([1]; XIAP expressed without Bax, control plasmid about 2%): about 5%
inhibition of processing of DEVD-pNA by caspase-3 ([2]; 10-fold molar excess): greater than 95%
average ratio velocity (vi/vo), caspase-3 ([2]; DEVD-AFC hydrolysis with/without GST-XIAP): less than 0.2
Ki ([2]; progress curve analysis, DEVD-AFC 0.1 mM, 0.1 nM caspase, read-out: inhibition constant (Ki) for caspase-3): ~0.7 nM
concentration that effectively abolished cytochrome c-induced processing of pro-caspase-3 [3]: 0.1 to 0.2 µM
Fas-induced apoptosis (in words) [4]: markedly suppressed
interference with substrate cleavage by caspase-1 [5]: did not interfere

Reference: US7192728B2, “Screening assays for agents that alter inhibitor of apoptosis (IAP) protein regulation of caspase activity” (The Burnham Institute, priority 1997, dated 2007)
